Reference: US20220031800A1, “PEPTIDES FOR TREATING NON-EXUDATIVE MACULAR DEGENERATION AND OTHER DISORDERS OF THE EYE” (Allegro Pharmaceuticals, LLC, priority 2019, published 2022)
Square brackets hold non-standard residues; d marks the D form. Peptide text beside a SMILES is read from it. Cya = N[C@@H](CS(=O)(=O)O)C(=O)O

Tested on: study eye of subjects with intermediate non-exudative AMD
Experiment: Humphrey visual field assessment (mean deviation, pattern standard deviation)
Format: in vivo, human
[1] = Week 12, Group 2 (1 mg IVT day 1 + wk 16)
[2] = Week 12, risuteganib group (1 mg IVT day 1 + wk 16)
[3] = Week 12 change, risuteganib group (1 mg IVT day 1 + wk 16)
[4] = Week 32, Group 1 crossover (sham day 1, 1 mg IVT wk 16)
[5] = Week 32, Group 2 (1 mg IVT day 1 + wk 16)
[6] = Week 32, risuteganib group (1 mg IVT day 1 + wk 16)
[7] = Week 32, sham group after crossover to 1 risuteganib injection (wk 16)
[8] = Week 32 change, Group 1 crossover (sham day 1, 1 mg IVT wk 16)
[9] = Week 32 change, Group 2 (1 mg IVT day 1 + wk 16)
[10] = Week 32 change, risuteganib group (1 mg IVT day 1 + wk 16)
[11] = Week 32 change, sham group after crossover to 1 risuteganib injection (wk 16)

Excerpt: Twenty-five subjects were assigned to Group 1 and fifteen (15) subjects were assigned to Group 2.

C[C@@H](O)[C@H](NC(=O)[C@H](CS(=O)(=O)O)NC(=O)CNC(=O)[C@H](CCCNC(=N)N)NC(=O)CN)C(=O)N1CCC[C@H]1C(=O)O [risuteganib, Glycyl-L-arginylglycyl-3-sulfo-L-alanyl-L-threonyl-L-proline] (H-GRG[Cya]TP-OH)
Humphrey visual field pattern standard deviation, mean [1]: 3.350 dB
Humphrey visual field pattern standard deviation, median [1]: 1.630 dB
Humphrey visual field mean deviation, mean [2]: −5.502 dB
Humphrey visual field mean deviation, median [2]: −3.500 dB
Humphrey visual field pattern standard deviation change, median (Week 12 change, Group 2 (1 mg IVT day 1 + wk 16)): −0.090 dB
Humphrey visual field mean deviation change, mean [3]: 0.302 dB
Humphrey visual field mean deviation change, median [3]: 0.100 dB
Humphrey visual field pattern standard deviation, mean [4]: 2.790 dB
Humphrey visual field pattern standard deviation, median [4]: 2.410 dB
Humphrey visual field pattern standard deviation, mean [5]: 3.113 dB
Humphrey visual field pattern standard deviation, median [5]: 2.050 dB
Humphrey visual field mean deviation, mean [6]: −5.211 dB
Humphrey visual field mean deviation, median [6]: −3.470 dB
Humphrey visual field mean deviation, mean [7]: −4.055 dB
Humphrey visual field mean deviation, median [7]: −2.260 dB
Humphrey visual field pattern standard deviation change, mean [8]: 0.469 dB
Humphrey visual field pattern standard deviation change, median [8]: 0.360 dB
Humphrey visual field pattern standard deviation change, mean [9]: 0.115 dB
Humphrey visual field pattern standard deviation change, median [9]: 0.045 dB
Humphrey visual field mean deviation change, mean [10]: 0.191 dB
Humphrey visual field mean deviation change, median [10]: −0.040 dB
Humphrey visual field mean deviation change, mean [11]: 0.158 dB
Humphrey visual field mean deviation change, median [11]: −0.070 dB
